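Interpolation was linear, between the two tested concentrations surrounding the appropriate level; five concentrations were tested over 48 hours in 96-well plates. Abbreviation: GI50, concentration required for 50% inhibition of growth. Definition used: TGI = concentration required for complete inhibition of growth.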
Key:
Assay in all cases: NCI tumour cell line growth inhibition, 48 h
[1] = tested on: CAKI-1 renal
[2] = tested on: LOX IMVI melanoma
[3] = tested on: KM12 colon
[4] = tested on: EKVX NSCLC
[5] = tested on: SK-MEL-5 melanoma
[6] = tested on: UACC-62 melanoma
[7] = tested on: U251 CNS
[8] = tested on: DU-145 prostate
[9] = tested on: NCI-H23 lung
[10] = tested on: BT-549 breast
[11] = tested on: HCT-116 colon
[12] = tested on: MDA-MB-231 breast
[13] = tested on: OVCAR-3 ovarian
[14] = tested on: NCI-H226 lung
[15] = tested on: MCF7 breast
[16] = tested on: HCT-15 colon
[17] = tested on: HCC-2998 colon
[18] = tested on: PC-3 prostate
[19] = tested on: HL-60(TB) leukemia
[20] = tested on: HOP-92 NSCLC
[21] = tested on: T-47D breast
[22] = tested on: TK-10 renal
[23] = tested on: SR leukemia
[24] = tested on: SK-MEL-28 melanoma
[25] = tested on: SK-MEL-2 melanoma
[26] = tested on: HOP-62 NSCLC
[27] = tested on: CCRF-CEM leukemia
[28] = tested on: MDA-MB-435

COc1ccc(/C(COc2ccc3c(=O)cc(-c4ccccc4)oc3c2)=N\O)cc1
TGI [1]: 28.4 µM
GI50 [2]: 9.4 µM
TGI [2]: 24.4 µM
GI50 [3]: 12.5 µM
TGI [3]: > 42.6 µM
GI50 [4]: 2050 nM
TGI [4]: > 18 µM
GI50 [5]: 9.61 µM
TGI [5]: > 29.4 µM
GI50 [6]: 10.9 µM
TGI [6]: 31.4 µM
GI50 [7]: 14.8 µM
TGI [7]: > 50 µM
GI50 [8]: 11.5 µM
TGI [8]: > 47.4 µM
GI50 [9]: 29.5 µM
TGI [9]: > 50 µM
GI50 [10]: 12.9 µM
TGI [10]: 25.8 µM
GI50 [11]: 21.2 µM
TGI [11]: > 50 µM
GI50 [12]: 5.82 µM
TGI [12]: 22.5 µM
GI50 [13]: 10.3 µM
TGI [13]: 38.7 µM
GI50 [14]: 17.7 µM
TGI [14]: > 50 µM
GI50 [15]: 9.68 µM
TGI [15]: > 32.2 µM
GI50 [16]: 22.8 µM
TGI [16]: > 50 µM
GI50 [17]: 16.5 µM
TGI [17]: > 50 µM
GI50 [18]: 12.7 µM
TGI [18]: > 36.1 µM
GI50 [19]: > 14 µM
TGI [19]: > 50 µM
GI50 [20]: > 27.7 µM
TGI [20]: > 50 µM
GI50 [21]: 21.7 µM
TGI [21]: > 45.8 µM
GI50 [22]: 10.7 µM
TGI [22]: 28.1 µM
GI50 [23]: 6.61 µM
TGI [23]: > 32 µM
GI50 [24]: 19.5 µM
TGI [24]: > 41.9 µM
GI50 [25]: 13.3 µM
TGI [25]: > 39.1 µM
GI50 [26]: 26.1 µM
TGI [26]: > 50 µM
GI50 [27]: > 50 µM
TGI [27]: > 50 µM
GI50 [28]: 6.77 µM
TGI [28]: 23.9 µM
